Laboratory results reported in patent US8129532B2, “Amino(oligo)thiophene dyes, preparation thereof, and optical methods of use” (The University of Connecticut, priority 2007, dated 2012).

System: layer V pyramidal neurons
Experiment: Voltage-sensitive dye imaging of action potentials in intracellularly stained pyramidal neurons in brain slices
Format: cell-based, Sprague Dawley rats
Conditions: for dF/F at 658 nm / dF/F at 633 nm: backpropagating AP, %; for dF/F at 658 nm / voltage sensitivity compared with red dye / dF/F at 633 nm: basal dendrites 80-150 μm from soma; for dF/F at 658 nm / S/N ratio at 658 nm: laser spot 658 nm; for dF/F at 633 nm / S/N ratio at 633 nm: laser spot 633 nm

Compound	dF/F at 658 nm [%]	voltage sensitivity compared with red dye	S/N ratio at 658 nm	dF/F at 633 nm [%]	S/N ratio at 633 nm	polarity of optical signal at 532 nm excitation	polarity of optical signal at 658 nm excitation
CCN(CC)c1ccc(-c2ccc(/C=C/c3cc[n+](CCC[N+](CC)(CC)CC)cc3)s2)s1 [PY-1261, Di-2-BTEPPTEA]	7.91 ± 1.57	better sensitivity than red dye JPW-3028	5.38 ± 1.86				
CCCN(CCC)c1ccc(-c2ccc(/C=C/c3cc[n+](CCC[N+](CC)(CC)CC)cc3)s2)s1 [PY-1286, Di-3-BTEPPTEA]	7.64 ± 2.20	better sensitivity than red dye JPW-3028	5.13±2.31	13.67 ± 2.89	4.53 ± 0.95		
CCCCN(CCCC)c1ccc(-c2ccc(/C=C/c3cc[n+](CCC[N+](CC)(CC)CC)cc3)s2)s1 [PY-1266, Di-4-BTEPPTEA]	8.32 ± 2.13	better sensitivity than red dye JPW-3028	5.22 ± 1.32	10.41 ± 2.80	4.77 ± 1.35	positive signals	positive signals
